This note sets out measurements from a melting point compilation (Tetko et al.; mined from patent text by program, amines drawn as free bases though some values may be those of a salt).

A word on the melting point: it is the temperature, or range, at which the solid turns liquid. `Nc1cc(=O)n(Cc2ccc(C(F)(F)F)c(Cl)c2)[nH]1` displayed a melting point of 83 °C. Regarding `CC(=O)c1c(CN2CCOCC2)[nH]c2ccc(Cl)cc12`, the melting point lay within 120 to 121 °C. The compound `CC(C)Cn1c(CO)c(-c2ccccc2F)c2cc(OCc3ccccc3)ccc2c1=O` returned a melting point of 191 to 192 °C. Regarding `CCOc1nccc(C(=O)OC)c1N`, the melting point was in the range of 59 to 60.5 °C. The compound `CC12CCC(O)CC1CCC1C2CCC2(C)C(C=NNC(=N)N)CCC12O` (stereo not drawn) returned a melting point of 163 to 165 °C.

On to `Nc1ccc(S(=O)(=O)Nn2cc(-c3ccccc3)c3ccccc32)cc1`, for which the melting point lay in the range of 176 to 177 °C. In turn, `COc1ccc(-c2nnc3c4ccccc4c(N(C)CCCCl)nn23)cc1` registered a melting point of 113 to 115 °C.

For the compound `COC(=O)CC(=O)c1ccc(C#N)cc1`, the melting point lay within 93 to 98 °C.

In turn, `C=CC=CN(C(=O)CCl)c1c(C)cccc1C` yielded a melting point of 88 °C. For `CCCc1c(O)c(C(C)=O)cc2c1N=C(C(=O)OC)CC2=O` the value was 169 to 170 °C; for `S=C(NCc1ccccc1Cl)N1CCc2c([nH]c3ccccc23)C1c1ccc2c(c1)OCO2` (stereo not drawn), 123 to 128 °C; for `COc1ccc(-n2nc(Br)cc2-c2ccc(SC)cc2)cc1`, 144 to 145 °C.

On to `Cc1nnc(COc2cccc3c2CN(C2CCC(=O)NC2=O)C3=O)o1` (stereo not drawn), for which the melting point lay within 206 to 208 °C. The result for `Cc1cc2c(cc1F)N(C(=O)Nc1cccnc1)CC2` reads 203 to 205 °C.

For `COc1cc(Oc2cccc(C(F)(F)F)c2)nc(C(=O)NN=C(C)C)c1`, the melting point lay in the range of 134 to 136 °C. The result for `CN(C)N=Nc1c(Br)csc1C(N)=O` reads 194 to 196 °C; that for `COC(=O)c1ccc(Cn2ncc3ccc(NC(=O)OC4CCCC4)cc32)c(OC)c1`, 150 to 151 °C; that for `CCc1nc(C)c(Cc2c(O)ccc3ccccc23)[nH]1`, 166 °C. For `COc1cc(Nc2nccc(-c3ccc(N4CCNC(CO)C4)nc3)n2)cc(OC)c1OC` (stereo not drawn), the melting point was 118 to 119 °C. Take `CC(=O)N1C(C)(C)CC(NC(=O)c2ccc(Cl)c(N)c2)CC1(C)C`: the melting point lay within 232 to 234 °C. Consider `CN(N)C1=NOCc2ccc(Cl)cc21`, for which the melting point is 124 to 125 °C. For `CCc1c(-c2ccc3cn[nH]c3c2)cc(Nc2ccc(N3CCN(CC)CC3)cn2)c2nccn12` the value was 217 °C; for `CCCCCc1ccc(-c2ccc(CCc3ccc(F)cc3)cc2)cc1`, 60 °C.

As to `CCOc1ccc(NC(=O)CC(Cc2cccc3ccccc23)C(=O)O)cc1` (stereo not drawn), the melting point is 131 to 135 °C. The result for `COc1ccc(C(=O)Nc2ccc(C(=O)O)cc2)cc1C12CC3CC(CC(C3)C1)C2` reads 286 to 287 °C; that for `CC(C)CN1CCC(N(C)S(=O)(=O)c2ccc(Nc3nccc(Nc4ccc(F)cc4)n3)cc2)CC1`, 194 to 195 °C; that for `Cc1cc(C)cc(OCC(O)CO)c1` (stereo not drawn), 47 to 49 °C.

On to `O=c1n(Cc2ccc([N+](=O)[O-])cc2)c2ccc(Cl)cc2n1C1CCCCC1`, for which the melting point came to 139 °C. The result for `CC(=O)N1Cc2c(-c3nc(C4CC4)no3)ncn2-c2ccccc21` reads 202 °C; that for `COC(=O)C1(C(=O)Nc2ccc(Br)cc2C)C2CCCCC21` (stereo not drawn), 105 to 107 °C; that for `OC(C#CI)(c1ccc(-c2ccccc2)cc1)c1cccc(Cl)c1` (stereo not drawn), 99 to 100 °C. For `O=C(Nc1cccnc1NCC(O)c1ccccc1)c1ccc(Cl)cc1` (stereo not drawn) the value was 157 to 159 °C; for `Cc1nn(CCO)c(-c2ccc(F)cc2)c1-c1ccc2c(c1)NC(=O)CO2`, 178 to 179 °C.

With `CC(c1ccc(-c2ccccc2)s1)N(O)C(N)=O` (stereo not drawn), the melting point lay within 150 to 152 °C. As to `CC(C)(C)[Si](C)(C)OC1CCCc2cnc3cc(OCc4ccccc4)ccc3c21` (stereo not drawn), the melting point lay in the range of 123 to 125 °C.

With `O=C(C(=O)c1cccc(I)c1)c1cccc(I)c1`, the melting point was determined as 127 °C. For `CS(=O)(=O)Nc1ccc(OCC2CCNCC2)cc1` the value was 180 to 183 °C; for `COc1cc(COc2nn(C)cc2C(C)O)ccc1OCc1nc(-c2ccccc2)oc1C` (stereo not drawn), 94 to 95 °C. On to `CCCCc1nc2c(N)nc3ccccc3c2n1CCCCCS(C)(=O)=O`, for which the melting point lay within 173 to 175 °C.

`O=C(Nc1cnc2cc[nH]c2c1)c1cc2cc(F)ccc2n1Cc1cccc(F)c1` had a melting point of 277 to 278 °C. For `CN(C)Cc1ncc2c(c1O)COC2(c1ccccc1)c1ccc(F)cc1` (stereo not drawn) the value was 184 °C; for `CCOC(=O)Nc1cnn(C)c1S(=O)(=O)NC(=S)NC(C)C`, 141 to 144 °C.

In turn, `Cn1c(=S)n(C)c(=O)n(-c2ccc(F)cc2F)c1=O` registered a melting point of 156 to 159 °C. For `O=C(O)c1cccc(NC(=O)C(CS)Cc2noc3ccccc23)c1` (stereo not drawn) the value was 207 to 209 °C; for `Nc1nc2c([nH]c(=S)n2Cc2cccs2)c(=O)[nH]1`, over 280 °C.

Regarding `CN(Cc1ccccc1)Cc1c(-c2ccc(NC(=O)NCCO)cc2)sc2c1c(=O)n(-c1ccccc1)c(=O)n2Cc1c(F)cccc1F`, the melting point is 220 to 222 °C. `CN(C(=S)Nc1ccccc1)C1CCN(CCc2c[nH]c3ccccc23)CC1`: the melting point was 194 °C. The result for `Cn1ncc(C(=O)NC2CC2)c1Cl` reads 105 to 107 °C; that for `CCOC(=O)c1cn(CC)c2nc(C=O)c(O)cc2c1=O`, 243 to 245 °C; that for `CC(C)c1ccc(S(=O)(=O)n2c(CCCC(=O)O)cc3nc(C(F)(F)F)ccc32)cc1`, 144 °C. The result for `COc1cc2c(cc1OC)C(C(c1ccccc1)N1CCCCC1)OC2=O` (stereo not drawn) reads 213 to 214 °C; that for `CSc1nc(-c2ccc(Cl)cc2)nc(-c2ccccn2)n1`, 152 °C. For `CCSC(=S)N1Cc2[nH]c3ccccc3c2CC1CO` (stereo not drawn) the value was 74 to 76 °C; for `COc1ccc(C=C2NC(=O)NC2=O)cc1OCc1ccccc1`, 242 to 244 °C; for `Cn1ncc2c1C(=O)Nc1cccnc1N2`, 304 to 305 °C. As for `CCOCc1nc2c(N)nc(C)c(C)c2n1CCOCC#Cc1ccccc1`, the melting point is 129 to 130 °C. Turning to `O=C1CCC(N2Cc3c(OCc4ccc(CN5CCN(S(=O)(=O)c6ccc(F)c(F)c6)CC5)cc4)cccc3C2=O)C(=O)N1` (stereo not drawn), the melting point was 225 to 227 °C. The result for `CSc1nn2c(N)cc(C)nc2c1S(=O)(=O)c1cccnc1` reads 227 to 228 °C; that for `COc1ccc2c(C)c(F)ccc2c1C(F)(F)F`, 97 to 99 °C. For `N#Cc1ccc(COCCn2cnc3c(N)nc4ccccc4c32)cc1` the value was 238 to 239 °C; for `CC(COc1ccc2c(c1)C(=O)NC(C)(C)O2)NCc1ccccc1` (stereo not drawn), 127 to 129 °C; for `O=C(c1ccccc1)c1ccc(OCCCCCCCCBr)cc1`, 59 to 61 °C. The compound `Fc1ccccc1-c1nc2cnccc2o1` displayed a melting point of 110 to 111 °C. For the compound `CCCC(C)(Oc1ccccc1)C(=O)OC1CC(O)C=C2C=CC(C)C(CCC3CC(O)CC(=O)O3)C21` (mixture of isomers), the melting point fell in the range of 151 to 153 °C. Regarding `COC(=O)N(C)c1cccc(-c2ccc3nncn3n2)c1`, the melting point lay within 195 to 199 °C.

Consider `Cn1nc(CO)cc1-c1ccccc1`, for which the melting point is 95 to 99 °C.

In the case of `O=C(NC1CCCCC1)NS(=O)(=O)c1cnccc1NC1CCCCCC1`, the melting point fell in the range of 165 to 169 °C. The result for `COc1cccc2c(=O)c(C(C)=O)c[nH]c12` reads 287 to 289 °C. For `CCCc1c(C)nc2ccc(C(=O)OC)cn2c1=O` the value was 98 to 99 °C; for `O=C1CCCCC1C(C[N+](=O)[O-])c1ccc(Cl)cc1` (racemic), 96 to 97 °C; for `Cc1ccc(S(=O)(=O)N2[C@@H](c3noc(C)n3)CC[C@H]2c2ccc(F)cc2)cc1` (racemic), 115 °C.

Compound `CC(=O)Oc1c(C2CCN(CCCCNC(=O)c3ccc(NC(=O)c4ccc(Cl)cc4)cc3)CC2)ccc2ccccc12` came in with a melting point of 240 °C. For `CC(C)(C)OC(=O)Nc1cc(CO)c(I)cc1[N+](=O)[O-]` the value was over 250 °C; for `CCCc1c2c(nc3cc(F)c(F)cc13)-c1cc3c(c(=O)n1C2)COC(=O)CC3(O)CC` (stereo not drawn), 250 °C; for `CCON=C(C(C)=NOCc1ccccc1C(=NOC)C(=O)NC)c1ccc(OC[Si](C)(C)c2ccc(F)cc2)cc1`, 88 to 90 °C. Compound `O=S(=O)(c1ccccc1)c1ccc2c(c1)NCC(C(F)F)(C(F)F)O2` displayed a melting point of 100 to 113 °C. The result for `COc1cc(Nc2c(C#N)cnc3cc(-c4ccc(CNCCS(C)(=O)=O)cc4)ccc23)c(Cl)cc1Cl` reads 245 to 246 °C; that for `O=C(O)[C@@H]1CC(=Cc2ccccc2)CN1C(=O)OCc1ccccc1`, 142 to 150 °C; that for `O=C(Cc1ccccc1[N+](=O)[O-])c1c(O)c2cccnc2n(-c2ccccc2)c1=O`, 194 to 195 °C.

As to `C[C@@H](O)c1cc2ccoc2cn1`, the melting point lay in the range of 59.5 to 60.5 °C. The result for `Cc1cc(-n2ccnc2)c2cccc(OCc3c(Cl)ccc(S(=O)(=O)N4CCC[C@H]4C(=O)N4CCN(c5ccccn5)CC4)c3Cl)c2n1` reads 108 °C.

Consider `C#CCNC(=O)N1CC(Oc2ccc(Cl)cc2)C1`, for which the melting point was 120 to 122 °C. The compound `CCCCc1nc(NC(C)=O)[nH]c(=O)c1Cc1ccc(-c2ccccc2-c2nnn[nH]2)cc1` displayed a melting point of 205 to 208 °C. Compound `CS(=O)(=O)c1ccc(S(=O)(=O)N2CCn3c(c(C(N)=O)c(Cl)c3-c3ccccc3)C2)cc1` showed a melting point of 258 to 259 °C.

As to `CC(C)(C)NC(=O)c1ccc(Cl)nc1`, the melting point fell in the range of 108 to 110 °C. Compound `OCc1cnoc1-c1ccc(Br)cc1` returned a melting point of 104 to 105 °C. In the case of `COc1ccc(C2=NN(C3CCN(C(=O)[C@H](C)NC(=O)NC(C)(C)C)CC3)C(=O)[C@@H]3CC=CC[C@H]23)cc1OC`, the melting point lay in the range of 153 to 154 °C. In the case of `O=C(N1CCOc2ccccc21)C(F)(F)F`, the melting point is 58 to 60 °C.
